Drawing on US8455525B2, “Selective androgen receptor modulators” (Radius Health, Inc., priority 2008, dated 2013), this text covers IC50 for 13 compounds.

The IC50 is the concentration that inhibits the measured activity by half.

The first experiment concerns the target T1, androgen receptor (AR) (Rattus norvegicus, UniProt P15207).
T1 construct: purchased Invitrogen, Madison, Wis
T1 sequence (P15207 651-902 limits assumed): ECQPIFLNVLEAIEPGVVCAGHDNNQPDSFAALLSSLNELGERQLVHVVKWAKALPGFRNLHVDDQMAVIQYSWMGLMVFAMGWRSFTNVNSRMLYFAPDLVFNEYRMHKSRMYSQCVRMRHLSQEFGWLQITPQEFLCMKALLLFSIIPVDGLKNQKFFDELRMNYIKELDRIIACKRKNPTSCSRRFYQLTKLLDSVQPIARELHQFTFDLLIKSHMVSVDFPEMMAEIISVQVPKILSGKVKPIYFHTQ
The experiment can be described thus: androgen receptor binding assay (fluorescence polarization, Fluormone AL Green competition).
Settings: not given
As to the method:
The assay was performed as specified by the manufacturer (Invitrogen, Madison, Wis.). Briefly, 1 μl of 10 mM compound was added to 500 μl of AR screening buffer in a 1.5 ml eppendorf tube to make a 2×10^−5M stock. 10-fold serial dilutions of the test compounds were prepared ranging in concentration from 10^−5M to 10^−12M. Each dilution was added in triplicate to a black 384-microtiter plate. The test compounds will be diluted 2-fold in the final reaction. 2×AR-Fluormone™ complex was prepared with 2 nM Flourmone AL Green™ and 30 nM AR. 25 μl of 2× complex was aliquoted to each reaction well, such that the final reaction volume was 50 μl per well. Plate was sealed with a foil cover and incubated in the dark at room temperature for 4 h. Polarization values for each well were measured. The polarization values were plotted against the concentration of the test compound. […] As a control, a competition curve for R1881 (methyltrienolone) was performed for each assay. Curve Fitting was performed using GraphPad Prism® software from GraphPad™ Software Inc. Binding data are reported as a single determination if the experiment was run once only and as the average of experiments if the binding experiment was performed two or more times with that compound.
Where multiple data points have been taken, the value reported is the average of the multiple determinations.
The compound `C[C@H](O)[C@@H](Nc1ccc(C#N)c(C(F)(F)F)c1)c1nnc(-c2ccc(C#N)cc2)o1` [Example 45, 4-((1R,2S)-1-(5-(4-Cyanophenyl)-1,3,4-oxadiazol-2-yl)-2-hydroxypropylamino)-2-(trifluoromethyl)benzonitrile] registered an IC50 of 470 nM. `C[C@@H](O)[C@@H](Nc1ccc(C#N)c(Cl)c1)c1nnc(-c2ccc(C#N)cc2)o1` [Example 46, 2-Chloro-4-((1R,2R)-1-(5-(4-cyanophenyl)-1,3,4-oxadiazol-2-yl)-2-hydroxypropylamino)-benzonitrile]: the IC50 worked out at 6 nM.

In turn, `CCc1c(N[C@@H](c2nnc(-c3ccc(C#N)cc3)o2)[C@H](C)O)ccc(C#N)c1Cl` [Example 47, 2-Chloro-4-((1R,2S)-1-(5-(4-cyanophenyl)-1,3,4-oxadiazol-2-yl)-2-hydroxypropylamino)-3-ethylbenzonitrile] yielded an IC50 of 1 nM.

`C[C@H](O)[C@@H](Nc1ccc(C#N)c(Cl)c1)c1nnc(-c2ccc(S(C)(=O)=O)cc2)o1` [Example 48, 2-Chloro-4-((1R,2S)-2-hydroxy-1-(5-(4-(methylsulfonyl)phenyl)-1,3,4-oxadiazol-2-yl)propylamino)benzonitrile] came in with an IC50 above 1000 nM. As to `Cc1c(N[C@@H](c2nnc(-c3ccc(CO)cc3)o2)[C@H](C)O)ccc(C#N)c1Cl` [Example 49, 2-Chloro-4-((1R,2S)-2-hydroxy-1-(5-(4-(hydroxymethyl)phenyl)-1,3,4-oxadiazol-2-yl)propylamino)-3-methylbenzonitrile], the IC50 turned out to be 2 nM. As to `C[C@H](O)[C@@H](Nc1ccc(C#N)c(Cl)c1)c1nnc(-c2ccc(C#N)cc2)o1` [Example 50, 2-Chloro-4-((1R,2S)-1-(5-(4-cyanophenyl)-1,3,4-oxadiazol-2-yl)-2-hydroxypropylamino)benzonitrile], the IC50 was 5 nM. Take `C[C@@H](O)[C@@H](Nc1ccc(C#N)c2ccccc12)c1nnc(-c2ccccc2)o1` [Example 52, 4-((1R,2R)-2-Hydroxy-1-(5-phenyl-1,3,4-oxadiazol-2-yl)propylamino)-1-naphthonitrile]: the IC50 is 9 nM. For `Cc1c(N[C@@H](c2nnc(-c3ccc(-n4cccn4)cc3)o2)[C@H](C)O)ccc(C#N)c1Cl` [Example 53, 4-((1R,2S)-1-(5-(4-(1H-Pyrazol-1-yl)phenyl)-1,3,4-oxadiazol-2-yl)-2-hydroxypropylamino)-2-chloro-3-methylbenzonitrile], the IC50 turned out to be 1 nM. For the compound `CCc1c(N[C@@H](c2nnc(-c3ccc(C#N)cc3)o2)[C@@H](C)O)ccc(C#N)c1Cl` [Example 54, 2-Chloro-4-((1R,2R)-1-(5-(4-cyanophenyl)-1,3,4-oxadiazol-2-yl)-2-hydroxypropylamino)-3-ethylbenzonitrile], the IC50 turned out to be 1 nM. As for `Cc1c(N[C@@H](c2nnc(-c3ccc(Cl)c(Cl)c3)o2)[C@H](C)O)ccc(C#N)c1Cl` [Example 55, 2-Chloro-4-((1R,2S)-1-(5-(3,4-dichlorophenyl)-1,3,4-oxadiazol-2-yl)-2-hydroxypropylamino)-3-methylbenzonitrile], the IC50 is 11 nM. Consider `Cc1c(N[C@@H](c2nnc(-c3ccc(Br)cc3)o2)[C@H](C)O)ccc(C#N)c1Cl` [Example 56, 4-((1R,2S)-1-(5-(4-Bromophenyl)-1,3,4-oxadiazol-2-yl)-2-hydroxypropylamino)-2-chloro-3-methylbenzonitrile], for which the IC50 was 10 nM.

For `Cc1c(N[C@@H](c2nnc(-c3ccc(I)cc3)o2)[C@H](C)O)ccc(C#N)c1Cl` [Example 57, 2-Chloro-4-((1R,2S)-2-hydroxy-1-(5-(4-iodophenyl)-1,3,4-oxadiazol-2-yl)propylamino)-3-methylbenzonitrile], the IC50 was 11 nM.

The experiment is the same for the next values; noted with them: single determination or average of multiple determinations; read-out: Binding IC50 (AR-Binding Affinity).
Regarding `C[C@@H](O)[C@@H](Nc1ccc(C#N)c2ccccc12)c1nnc(-c2ccc(C#N)cc2)o1` [Example 51, 4-((1R,2R)-1-(5-(4-Cyanophenyl)-1,3,4-oxadiazol-2-yl)-2-hydroxypropylamino)-1-naphthonitrile], the concentration for half-maximal inhibition (IC50) was 600 nM.
